Patent publication US10682351B2, “Methods of administering elagolix” (AbbVie Inc., priority 2015, dated 2020)
Read-outs that look alike come from different tables or passages of the source.

What was measured:
[1] = Safety in elagolix/ketoconazole interaction study (adverse events, vital signs, ECGs, laboratory tests); assay type: in vivo, human
Method: (§1) Each subject received elagolix 150 mg single dose alone and on the 4th day of a six-day regimen of ketoconazole 400 mg q.d.
Adverse event rates across treatment periods were 0% (elagolix alone), 82% (ketoconazole alone), and 36% (co-administration). The most common adverse event was nausea, which was noted as probably related to ketoconazole alone. […] Mean elagolix plasma concentration—time profiles for elagolix administered with ketoconazole, versus elagolix administered alone, are shown in FIG. 2.

[2] = Pharmacokinetic interaction between elagolix and ketoconazole (open-label, two-period, sequential study); assay type: in vivo, human; conditions: elagolix 150 mg single dose on 4th day of six-day ketoconazole 400 mg q.d. vs elagolix alone; healthy premenopausal females
Method: In a second embodiment of this invention, it was discovered that ketoconazole increased elagolix exposure levels.
as §1
Analysis of variance was performed to compare the pharmacokinetic parameters of elagolix with and without ketoconazole.

[3] = in vivo
Method: This was an open-label, two-period, sequential study conducted in 12 females chosen according to the protocol selection criteria. Each subject received elagolix 150 mg single dose with and without rifampin 600 mg q.d. for 10 days. Intensive blood samples for elagolix assay were collected up to 36 hours after elagolix dosing in both periods. Safety data, including adverse event monitoring, vital signs, ECGs, and laboratory tests were collected during the study.
Values for elagolix maximum concentration (Cmax) and area-under-the-curve (AUC) were estimated using noncompartmental methods. Analysis of variance was performed to compare elagolix Cmax and AUC with and without rifampin.

Compound	Vital signs, ECG or laboratory measurements ([1]; in vivo)	Elagolix AUC increase [2] [fold]	Elagolix Cmax increase [2] [fold]	Vital signs, ECG or laboratory measurements [3]	Adverse event rate ([1]; drug alone treatment period, elagolix 150 mg single dose or ketoconazole 400 mg q.d., healthy premenopausal females) [%]
COc1cccc(-c2c(C)n(Cc3c(F)cccc3C(F)(F)F)c(=O)n(C[C@H](NCCCC(=O)[O-])c3ccccc3)c2=O)c1F.[Na+] [Elagolix, 4-((R)-2-[5-(2-fluoro-3-methoxy-phenyl)-3-(2-fluoro-6-trifluoromethyl-benzyl)-4-methyl-2,6-dioxo-3,6-dihydro-2H-pyrimidin-1-yl]-1-phenyl-ethylamino)-butyric acid sodium salt]	No clinically significant vital signs, ECG or laboratory measurements were observed	2.2	1.8	No clinically significant vital signs, ECG or laboratory measurements were observed	–
CC(=O)N1CCN(c2ccc(OCC3COC(Cn4ccnc4)(c4ccc(Cl)cc4Cl)O3)cc2)CC1 (centres unmarked) [ketoconazole, Ketoconazole, reference compound]	–	–	–	–	82
